What was measured:
Type in all cases: in vivo, mouse
TNF-α = assay: qRT-PCR of TNF-α mRNA in left ventricle after TAC/sham; details: Example 1, TAC, three days after surgery, M ± SEM
Method: (§1) 11 to 13 week old male C57BL/6 mice were purchased from Charles River (Germany). Mice were housed in individually ventilated pathogen-free cages with free access to water and standard rodent chow. The animals were handled according to the principles of laboratory animal care (NIH publication No. 85-23, revised 1996), and animal procedures were approved by the local committee for animal care.
(§2) The first injection was performed 5 min prior to TAC or sham-operation procedure (described below) and repeated 4, 8, 12, 24, 36, 48 and 60 hrs after surgery. […]
(§3) Quantitative real-time PCR analysis was completed. […] RNA was dissolved in 100 μl of RNase-free water, and concentration was determined photometrically (absorbance at 260 nm) before storage at −80° C. […]
(§4) Real-time PCR was performed according to the manufacturer's protocol. […] Each sample was measured in triplicate wells and underwent 40 cycles of amplification on an ABI PRISM® Sequence Detection System (Applied Biosystems). CT values were determined with SDS Software 2.2 (Applied Biosystems) and relative quotients (RQ) were calculated following the ΔΔCT method (RQ target gene/GAPDH).
(§5) Statistics were calculated using Prism 4.05 (GraphPad Software Inc., CA, USA). All values are expressed as mean (M)±SEM. […]

Tristetraprolin (TTP) = assay: qRT-PCR of TTP mRNA in left ventricle after TAC/sham; details: Example 1, three days after surgery
Method: as §1, §2, §3, §4, §5

[1] = system: total matrix metalloproteinase (MMP-2+MMP-9); assay: Total MMP mRNA (MMP-2+MMP-9) calculated from qRT-PCR; details: Example 1; TAC vs sham within treated groups; three days after surgery
Method: as §1, §2, §3, §4, §5

[2] = system: brain natriuretic peptide (BNP); assay: qRT-PCR of BNP mRNA in left ventricle after TAC/sham; details: Example 2; TAC treated vs TAC-placebo
Method: as §1, §2, §3, §4, §5

IL-1β = assay: qRT-PCR of IL-1β mRNA in left ventricle after TAC/sham; details: Example 2; TAC treated vs TAC-placebo
Method: as §1, §2, §3, §4, §5

Row | SMILES | TNF mRNA level (TNF-α) | TTP/TNFα ratio (Tristetraprolin (TTP); TAC) | TTP/TNFα ratio (Tristetraprolin (TTP); sham operation) | total MMP mRNA level (MMP-2+MMP-9) [1] | BNP mRNA expression [2] | IL-1β mRNA expression (IL-1β)
1 | CCCCCC/C=C\CCCCCCCCCC(=O)N[C@H]1[C@H](OC[C@H]2O[C@H](OP(=O)([O-])[O-])[C@H](NC(=O)CC(=O)CCCCCCCCCCC)[C@@H](OCCCCCCCCCC)[C@@H]2O)O[C@H](COC)[C@@H](OP(=O)([O-])[O-])[C@@H]1OCC[C@@H](CCCCCCC)OC.[Na+].[Na+].[Na+].[Na+] [Eritoran tetrasodium] | 1.32±0.19 | 0.61±0.33 | 1.40±0.33 | remained unchanged by aortic banding | – | –
2 | CCCCCC/C=C\CCCCCCCCCC(=O)N[C@H]1[C@H](OC[C@H]2O[C@H](OP(=O)(O)O)[C@H](NC(=O)CC(=O)CCCCCCCCCCC)[C@@H](OCCCCCCCCCC)[C@@H]2O)O[C@H](COC)[C@@H](OP(=O)(O)O)[C@@H]1OCC[C@@H](CCCCCCC)OC [compound of formula (I), α-D-Glucopyranose, 3-O-decyl-2-deoxy-6-O-[2-deoxy-3-O-[(3R)-3-methoxydecyl)-6-O-methyl-2-[[(−11Z)-1-oxo-11-octadecenyl)amino]-4-O-phosphono-β-D-glucopyranosyl]-2-[(1,3-dioxotetradecyl)amino]-1-(dihydrogen phosphate)] | – | – | – | – | elevated in TAC-placebo mice compared to sham and the TAC groups treated | lower

Reference: patent publication US20110201569A1, “Methods For Treating Myocardial Disorders” (priority 2009, published 2011)
